Measured values from paper PMC11845477, “Exploring the principles behind antibiotics with limited resistance” (Nature Communications, 2025).
Where “and” joins values, the source holds several entries; their conditions need not be identical. Identical values can stand only once. Like-named read-outs stand apart in the source and are kept apart here. Where a SMILES comes first, the peptide text is derived from it. Bridges are numbered along the chain shown (N, C = ends). [ ]: non-standard residue; d: D form. The star is where a group is joined. X1 = NC[C@@H](CC(=O)*)c1cccc(Cl)c1; Dab = NCC[C@H](N)C(=O)O; Dap = NC[C@H](N)C(=O)O

Tests used:
P. aeruginosa = assay type: cell-based, Pseudomonas aeruginosa
Experimental: (§1) We employed image analysis to quantify bacterial survival under fixed antibiotic concentrations (10xMIC for 4 hours) on E. coli, A. baumannii, K. pneumoniae, and P. aeruginosa. […] Survival rate was quantified by calculating the ratio of the viable cells after antibiotic treatment and the total initial viable cell count.
(§2) Fig. 9 Killing kinetics of the studied antibiotics. a Bacterial survival rate in response to toxic antibiotic exposure. […] The bars indicate the survival rate (log10) compared to the untreated initial viable cell count (see “Methods”). Data are presented as mean values of 5 biological replicates ± SEM. The antibiotic group differentiation is denoted by color. […] Survival was estimated by measuring cell viability (colony-forming units/ml) of 2 biologically independent strains following a 4-hour exposure to different concentrations of 16 antibiotics on E. coli ATCC25922 (for further details, see “Methods”). The antibiotic concentration that kills 99.9% of the E. coli population is indicated as a vertical dotted line (see Supplementary Data 5). Error bars represent standard error calculated from the colony counts by Poisson’s model. A Hill function was fitted to the dose-response data from two biological replicates, producing sigmoidal curves (Supplementary Data 5). The Hill coefficient reflects how steeply the survival rate decreases in response to increasing antibiotic concentration ([…]). […] X-axis label colors indicate mode of action groups. For detailed information on antibiotic and bacterial species, see Supplementary Data 1. Source data are provided as a Source Data file.
(§3) In this current study, the killing kinetics of each antibiotic was measured according to a previously established experimental protocol[62] with minor modifications. During this assay, the bacterial cultures were exposed to antibiotics in 96-well assay plates and their viability after 4 hours of exposure was quantified by two methods: i) microplating and colony counting or ii) fluorescent staining of cells and counting of the fluorescent units.
(§4) Specifically, these experiments were performed in the following steps: (1) Preparation of bacterial stocks. Single colonies from each strain were isolated and grown overnight in MHB medium at 37 °C, 160 rpm. In case of the fluorescently tagged E. coli strains, the medium was supplemented with 10 μg/mL chloramphenicol, to maintain the pZS2R plasmid. Overnight cultures were diluted 1:5000 and grown to an optical density at 600 nm (OD600) of 0.25. These cultures were concentrated by centrifugation and small aliquots of 50 μL containing ~2.2 × 10^9 cells were frozen in glycerol (stored at −80 °C). (2) Preparing assay plates with antibiotics. 96-well plates were filled with 235 μL MHB and supplemented with antibiotics using an automated digital dispenser (D300e, Tecan). In the case of SCH79797, we used minimal media. […] For testing the clearance efficacy of each antibiotic at a single lethal dose, the 10x of the MIC for each antibiotic-strain pair were prepared in at least three replicates. (3) Antibiotic exposure. During the dose response assay, frozen cultures of the E. coli strains expressing YFP and mCherry were thawed and mixed at a 1:1 ratio, diluted 1:1000 in 30 mL MHB and incubated for 45 min at 37 °C and 160 rpm. During the single-dose assay, the frozen cultures of experimental strains (E. coli, K. pneumoniae, A. baumannii) were also thawed and diluted 1:1000 in 30 mL MHB and incubated at 37 °C to reach an OD of 0.25 and 160 rpm. Following this incubation phase, these bacterial cultures were then aliquoted into the 96-well deep-well antibiotic plates (15 μL culture; total volume of 250 μL) at an inoculum density of about 10^7 CFU.

A. baumannii = test: Bacterial survival at 10xMIC for 4 hours; assay type: cell-based, Acinetobacter baumannii; settings: for Survival rate (log10): Acinetobacter baumannii, survival at 10xMIC for 4 hours, single replicates, (fig 9a source data)
Experimental: as §1, §2, §3, §4

E. coli = assay type: cell-based, Escherichia coli
Experimental: as §1, §2, §3, §4

E. coli ATCC25922 = test: Dose-response killing curves (99.9% killing concentration, Hill coefficient); assay type: cell-based, Escherichia coli; settings: dose-response killing curve; for 99.9% killing (10^-3): unit not given
Excerpt: as §2
To test the dose range under which resistance can evolve, we employed advanced microplating and automated image analysis. We quantified bacterial population survival at varying antibiotic concentrations[62] (see “Methods”) in E. coli. Briefly, we generated dose-response curves and investigated how steeply the killing effect increases as the antibiotic concentration rises. In specific, the Hill coefficient representing each bacterial strain-antibiotic combination was calculated to quantify dose-kill kinetics.
as §3
as §4, with “rpm.” for “rpm. Following this incubation phase, these bacterial cultures were then aliquoted into the 96-well deep-well antibiotic plates (15 μL culture; total volume of 250 μL) at an inoculum density of about 10^7 CFU.”

[1] = Escherichia coli, survival at 10xMIC for 4 hours, single replicates, (fig 9a source data)

## CNC(C)C1CCC(N)C(OC2C(N)CC(N)C(OC3OCC(C)(O)C(NC)C3O)C2O)O1 (centres unmarked) [Gentamicin]
P. aeruginosa; Pseudomonas aeruginosa, survival at 10xMIC for 4 hours, single replicates, (fig 9a source data), listed as GEN
  Survival rate (log10): -0.02375 log10 and -0.1205 log10 and -0.1516 log10 and -0.09697 log10 and -0.6642 log10
A. baumannii; listed as GEN
  Survival rate (log10): -1.432 log10 and -1.215 log10 and -1.434 log10 and -1.4437 log10 and -1.516 log10
E. coli; Escherichia coli, survival at 10xMIC for 4 hours, single replicates, (fig 9a source data), listed as GEN
  Survival rate (log10): -0.32 log10 and -0.3695 log10 and -0.2419 log10 and -0.4019 log10 and -0.3632 log10

## CN[C@@H]1[C@@H](O[C@H]2O[C@H](CO)[C@@H](N)[C@H](O)[C@H]2O)OC2C[C@@H](N)[C@@H](O[C@H]3[C@H](O)[C@@H](O)[C@H](N)C[C@@H]3N)OC2[C@@H]1O (some centres unmarked) [Apramycin]
A. baumannii; listed as APR
  Survival rate (log10): -1.378 log10 and -1.536 log10 and -1.241 log10 and -1.504 log10 and -1.3851 log10

## Nc1nc(-n2cc(C(=O)O)c(=O)c3cc(F)c(N4CC(O)C4)c(Cl)c32)c(F)cc1F [Delafloxacin]
P. aeruginosa; Pseudomonas aeruginosa, survival at 10xMIC for 4 hours, single replicates, (fig 9a source data), listed as DEL
  Survival rate (log10): -0.244 log10 and -0.1736 log10 and -0.08683 log10 and -0.3488 log10 and -0.1122 log10
A. baumannii; listed as DEL
  Survival rate (log10): -1.416 log10 and -1.661 log10 and -1.352 log10 and -1.5252 log10 and -1.635 log10
E. coli; Escherichia coli, survival at 10xMIC for 4 hours, single replicates, (fig 9a source data), listed as DEL
  Survival rate (log10): -1.163 log10 and -1.03 log10 and -1.096 log10 and -1.128 log10 and -1.122 log10

## POL7306
P. aeruginosa
  Survival rate (log10): -6 log10
P. aeruginosa; Pseudomonas aeruginosa, survival at 10xMIC for 4 hours, single replicates, (fig 9a source data), listed as POL
  Survival rate (log10): -2.602 log10 and -2.902 log10 and -2.057 log10
A. baumannii; listed as POL
  Survival rate (log10): -3.645 log10 and -4.987 log10 and -2.756 log10 and -3.625 log10 and -3.539 log10
E. coli ATCC25922
  Steepness (Hill Coefficient): 43.61
  99.9% killing (10^-3): 2.31
E. coli
  Survival rate (log10): -4.747 log10
E. coli; Escherichia coli, survival at 10xMIC for 4 hours, single replicates, (fig 9a source data), listed as POL
  Survival rate (log10): -4.446 log10 and -4.3509 log10

## CC(C)c1ccc(Cn2ccc3c4c(N)nc(NC5CC5)nc4ccc32)cc1 [SCH79797]
A. baumannii; 10xMIC for 4 hours
  bacterial survival after toxic antibiotic exposure: eliminated the entire bacterial population
A. baumannii
  Survival rate (log10): -6 log10
E. coli ATCC25922
  Steepness (Hill Coefficient): 16.39
  99.9% killing (10^-3): 4.31
E. coli; 10xMIC for 4 hours
  bacterial survival after toxic antibiotic exposure: eliminated the entire bacterial population
E. coli; [1]
  Survival rate (log10): -6 log10

## CC(C)C[C@@H]1NC(=O)[C@@H](Cc2ccccc2)NC(=O)[C@H](CCN)NC(=O)[C@@H](NC(=O)[C@H](CN)NC(=O)[C@@H](NC(=O)C[C@H](CN)c2cccc(Cl)c2)[C@@H](C)O)CCNC(=O)[C@H]([C@@H](C)O)NC(=O)[C@H](CCN)NC(=O)[C@H](CCN)NC1=O [SPR206] (X1-T[Dap][Dab][Dab][dF]L[Dab][Dab]T; lactam 3-C (inferred); N-terminus assumed)
P. aeruginosa; Pseudomonas aeruginosa, survival at 10xMIC for 4 hours, single replicates, (fig 9a source data), listed as SPR
  Survival rate (log10): -6 log10 and -2.301 log10 and -2.534 log10 and -2.682 log10
A. baumannii; listed as SPR
  Survival rate (log10): -1.951 log10 and -2.839 log10 and -3.084 log10 and -1.511 log10 and -2.915 log10
E. coli ATCC25922
  Steepness (Hill Coefficient): 59.45
  99.9% killing (10^-3): 0.18
E. coli; Escherichia coli, survival at 10xMIC for 4 hours, single replicates, (fig 9a source data), listed as SPR
  Survival rate (log10): -4.747 log10 and -3.687 log10 and -3.935 log10 and -4.007 log10 and -3.902 log10

## Tridecaptin M152-P3
A. baumannii; listed as TRD
  Survival rate (log10): -2.876 log10 and -2.59 log10 and -2.704 log10 and -2.72 log10 and -2.696 log10
E. coli ATCC25922
  Steepness (Hill Coefficient): 18.9
  99.9% killing (10^-3): 4.73
E. coli
  Survival rate (log10): -4.747 log10
E. coli; [1]
  Survival rate (log10): -3.386 log10

## C[C@@H](O)[C@H]1C(=O)N2C(C(=O)O)=C(S[C@H]3CC[S@@+]([O-])C3)S[C@H]12 [Sulopenem]
A. baumannii; listed as SUO
  Survival rate (log10): -2.317 log10 and -2.432 log10 and -2.658 log10 and -2.635 log10
E. coli ATCC25922
  Steepness (Hill Coefficient): 1.03
  99.9% killing (10^-3): 0.18
E. coli; Escherichia coli, survival at 10xMIC for 4 hours, single replicates, (fig 9a source data), listed as SUO
  Survival rate (log10): -1.918 log10 and -1.5648 log10 and -1.786 log10 and -1.733 log10 and -1.844 log10

## colistin
P. aeruginosa; 10xMIC for 4 hours
  bacterial survival after toxic antibiotic exposure: eliminate the full bacterial population
P. aeruginosa; Pseudomonas aeruginosa, survival at 10xMIC for 4 hours, single replicates, (fig 9a source data)
  Survival rate (log10): -6 log10
A. baumannii; listed as COL
  Survival rate (log10): -3.481 log10 and -3.59 log10 and -3.495 log10 and -4.987 log10 and -3.369 log10
E. coli; Escherichia coli, survival at 10xMIC for 4 hours, single replicates, (fig 9a source data), listed as COL
  Survival rate (log10): -4.747 log10 and -3.794 log10

## CN(C)[C@@H]1C(O)=C(C(N)=O)C(=O)[C@@]2(O)C(O)=C3C(=O)c4c(O)c(NC(=O)CN5CCCC5)cc(F)c4C[C@H]3C[C@@H]12 [Eravacycline]
P. aeruginosa; Pseudomonas aeruginosa, survival at 10xMIC for 4 hours, single replicates, (fig 9a source data), listed as ERA
  Survival rate (log10): -0.509 log10 and -0.5518 log10 and -0.8039 log10 and -0.6612 log10 and -0.7582 log10
A. baumannii; listed as ERA
  Survival rate (log10): -1.499 log10 and -1.238 log10 and -1.644 log10 and -1.596 log10 and -1.425 log10
E. coli; Escherichia coli, survival at 10xMIC for 4 hours, single replicates, (fig 9a source data), listed as ERA
  Survival rate (log10): -1.588 log10 and -1.262 log10 and -1.406 log10 and -1.2833 log10 and -1.1562 log10
